Source: patent US10662214B2, “Compound of 4′-thionucleoside, as well as preparation method therefor, pharmaceutical composition thereof and application thereof” (Sichuan Kelun-Biotech Biopharmaceutical Co., Ltd., priority 2015, dated 2020)

What was measured:
[1] = Oral toxicity test in mice (administration for 7 days); format: in vivo; conditions: once per day for 7 days
Method: Normal Male and female Kunming mice (SPF grade, obtained from Laboratory Animal Center in Sichuan Academy of Chinese Medicine Science) were randomized by weight into groups. The test compound and vehicle control were formulated according to Experimental example 2. The dosage volume was 10 mL/kg, and the administration was performed by oral gavage, once per day for 7 consecutive days.

[2] = system: human pancreatic cancer cell BxPC-3; assay: Subcutaneous xenograft of human pancreatic cancer cell BxPC-3 in a nude mouse (Experimental example 3); format: in vivo; conditions: once every 3 days, 4 times
Method: According to methods similar to those in sections 1 to 2 in Experimental example 2, pancreatic cancer cell BxPC-3 was cultured as a monolayer in vitro, and inoculated, and the animals were randomized into groups.
An appropriate amount of the test compound was weighted out, and added in DMSO. The 10% solution of SE-β-CD was then added according to the desired concentration, and the final concentration of DMSO was adjusted to 2.5%. A gemcitabine injection (a positive control) was diluted to the desired concentration with physiological saline. A 10% solution of SE-β-CD containing 2.5% DMSO was prepared as a vehicle control.
Mice bearing a tumor having a volume of 100-200 mm^3 were selected, and randomized into 14 groups (7 mice per group). The dosing volume was 20 mL/kg, and the administration (intravenous administration (i.v.)) was performed once every 3 days, for 4 times in total.
For statistical calculations of the test indexes, please refer to Experimental example 2.

Compound: CC(C)OC(=O)[C@H](C)N[P@](=O)(OC[C@H]1S[C@@H](n2ccc(N)nc2=O)[C@@H](F)[C@@H]1O)Oc1ccccc1 [Compound C8, (S)-isopropyl 2-(((S)-(((2R,3S,4S,5R)-5-(4-amino-2-oxopyrimidin-1(2H)-yl)-4-fluoro-3-hydroxytetrahydrothiophen-2-yl)methoxy)(phenoxy)phosphoryl)amino)propanoate]
- dosage at which death of animals occurred ([1]; oral gavage): ~115 µmol/kg
- Results: mortality (3 Male + 3 Female) ([1]; ~77 μmol/kg oral gavage): survived
- Results: clinical symptoms (3 Male + 3 Female) ([1]; ~6 mg/kg (~12 μmol/kg) oral gavage): No abnormal symptoms
- Results: clinical symptoms (3 Male + 3 Female) ([1]; ~20 mg/kg (~38 μmol/kg) oral gavage): No abnormal symptoms
- TGI (%) ([2]; 0.04 mmol/kg i.v.): 26.9%
- TGI (%) ([2]; 0.12 mmol/kg i.v.): 74.9%
- TGI (%) ([2]; 0.24 mmol/kg i.v.): 82.9%
